{
  "source": "patent US9663561B2",
  "about": "“Methods of treatment of cancer using SRC-modulating peptides” (The University of Toledo, priority 2006, dated 2017)",
  "key": {"[1]": {"target": "T1, purified pig kidney Na+/K+-ATPase (Sus scrofa, UniProt P05024)", "T1 construct": "Na+/K+-ATPase was purified from pig kidney outer medulla using the Jorgensen method; from tissue; host or cells: pig kidney outer medulla", "test": "ATPase activity of purified pig kidney Na+/K+-ATPase", "type": "biochemical", "conditions": "10 μM ouabain", "excerpt": "Src, without the first 85 amino acid residues, was purified from sf-9 cells as described (Ma et al., 2000) and used in the initial binding assays to ensure that Src binds to the Na+/K+-ATPase, but not the lipid composition in the purified Na+/K+-ATPase preparation. In subsequent experiments (e.g., phosphorylation and activity assays), purified recombinant full-length Src from Upstate Biotechnology was used. Na+/K+-ATPase was purified from pig kidney outer medulla using the Jorgensen method (Xie et al., 1996) and the preparations with specific activities between 1200 and 1400 μmol Pi/mg/h were used.\nGST fusion proteins or His-tagged proteins were expressed in Escherichia coli BL21 and purified on glutathione beads or nickel column."}, "[2]": {"system": "Na+/K+-ATPase/Src complex", "test": "Effect of ouabain on binding of GST-Src constructs to Na+/K+-ATPase", "conditions": "10 μM ouabain, 15 min", "procedure": "FIG. 7C. A representative Western blot of four separate experiments showing that ouabain induced the release of the kinase domain from the Na+/K+-ATPase. […] Complexes were then pulled down on glutathione beads, washed three times, resuspended in 500 μl PBS, and exposed to 10 μM ouabain for 15 min. The beads were then washed for three more times using PBS, and the pulled down Na+/K+-ATPase was analyzed by Western blot using anti-α1 antibody\nBecause the inventors have shown that multiple domains are involved in Src interaction with the Na+/K+ATPase, the above findings led us to test if ouabain dissociates only a single (kinase) domain from the interacting Na+/K+-ATPase. […] Afterward, the complexes were exposed to 10 μM ouabain."}, "LLC-PK1 cells": {"system": "LLC-PK1 cells", "test": "Tyrosine phosphorylation of Na+/K+-ATPase-associated proteins (anti-α1 immunoprecipitation)", "type": "cell-based, pig", "conditions": "1 μM ouabain, 5 min", "procedure": "FIG. 9A. LLC-PK1 cells were treated with 1 μM ouabain for 5 min, and cell lysates were immunoprecipitated with anti-α1 antibody and analyzed for tyrosine phosphorylated proteins.\nCells were lysed in RIPA buffer containing 1% Nonidet P40, 0.25% sodium deoxycholate, 150 mM NaCl, 1 mM EDTA, 1 mM phenylmethylsulfonyl fluoride, 1 mM sodium orthovanadate, 1 mM NaF, 10 μg/ml aprotinin, 10 μg/mlleupeptin, and 50 mM Tris-HCl (pH 7.4). Cell lysates were cleared by centrifugation at 16,000×g for […], and the supernatants (1 mg) were either immunoprecipitated with anti-α1 antibody or incubated with different GST-fusion proteins. The complexes were then pulled down by either protein G agarose or glutathione beads (Ma et al., 2000; Haas et al., 2002) and analyzed by Western blot."}, "Na+/K+-ATPase": {"system": "Na+/K+-ATPase", "test": "Na+/K+-ATPase activity assay in cell lysates", "type": "biochemical, pig", "conditions": "10 μM ouabain, PY-17 and P-11 cells", "procedure": "Na+/K+-ATPase enzymatic activity was determined Briefly, cells were collected from the cultures in Tris-EGTA buffer (pH 7.2) and briefly sonicated. The cell lysates were then treated with alamethicin at a concentration of 0.1 mg/mg of protein for 30 min at room temperature. ATPase activity was measured by the determination of the initial release of 32P from [,y-32P]ATP, and the reaction was carried out in a reaction mixture (1 ml) containing 100 mM NaCl, 25 mM KCl, 3 mM MgCl2, 1 mM EGTA, 2 mM ATP, 5 mM NaN3, and 50 mM Tris-HCl (pH 7.4). Na+/K+-ATPase activity was calculated as the difference between the activities measured in the absence of ouabain and in the presence of 1 mM ouabain. To determine the ouabain concentration curve, the alamethicin-treated cell lysates were preincubated with different concentrations of ouabain for 15 min before ATP was added to start the reaction."}, "Src and ERK1/2": {"system": "Src and ERK1/2", "test": "Activation of Src and ERK1/2 in P-11, A4-11, PY-17 and AAC-19 cells (Western blot)", "type": "cell-based, pig", "conditions": "for Src activation (Tyr(P)418-Src): 100 nM ouabain", "procedure": "FIGS. 18A and 18B. Cells were exposed to 100 nM ouabain for either 5 or 15 min, and the cell lysates (50 μg/lane) were analyzed by Western blot for active Src or active ERK1/2. Blots were probed first with anti-Tyr(P)^418-Src or anti-pERK antibody, then stripped, and reprobed for total Src or ERK1/2 to ensure equal loading.\nFIGS. 18 C and 18D. Cells were treated with indicated concentrations of ouabain for 5 min, and total cell lysates were analyzed for Tyr(P)^418-Src and total Src or pERK1/2 and total ERK1/2 as in FIGS. 18A and 18B. A representative Western blot and combined quantitative data are shown. The quantitative data (relative ratio of pSrc/Src or pERK/ERK) from three independent experiments (mean±S.E.) were calculated relative to the control condition of P-11 cells. *, p<0.05 versus the respective control condition of each cell line. con, control.\nCells were washed with PBS, solubilized in modified ice-cold radioimmune precipitation assay buffer, and subjected to immunoprecipitation or Western blot analysis. Protein signal was detected using the enhanced chemiluminescence kit and quantified using a Bio-Rad GS-670 imaging densitometer."}, "Src and ERKs": {"system": "Src and ERKs", "conditions": "cultured cells and animal models; cited from earlier work"}},
  "data": [
    {"smiles": "C[C@@H]1O[C@@H](O[C@H]2C[C@@H](O)[C@]3(CO)[C@H]4[C@H](O)C[C@]5(C)[C@@H](C6=CC(=O)OC6)CC[C@]5(O)[C@@H]4CC[C@]3(O)C2)[C@H](O)[C@H](O)[C@H]1O", "note": "[ouabain]", "values": [
      {"measurement": "inhibition of the ATPase activity", "setting": "[1]", "value": "complete inhibition"},
      {"measurement": "binding of Src kinase domain to the Na+/K+-ATPase", "setting": "[2]", "value": "dissociated the kinase domain"},
      {"measurement": "binding of full-length Src or SH3SH2 domain to the Na+/K+-ATPase", "setting": "[2]", "value": "no effect on the binding of either full-length Src or the SH3SH2 domain"},
      {"measurement": "tyrosine phosphorylation of Na+/K+-ATPase-associated proteins", "setting": "LLC-PK1 cells", "value": "stimulated tyrosine phosphorylation"},
      {"measurement": "inhibition of the Na+/K+-ATPase in cell lysates", "setting": "Na+/K+-ATPase", "value": "complete inhibition"},
      {"measurement": "Src activation (Tyr(P)418-Src)", "setting": "Src and ERK1/2; A4-11 cells", "value": "significant reduction"},
      {"measurement": "dose-response of Src and ERK1/2 activation", "setting": "Src and ERK1/2; AAC-19 cells (rat α1 knock-in)", "value": "shifted the dose-response curve to the right"},
      {"measurement": "Src activation (Tyr(P)418-Src)", "setting": "Src and ERK1/2; P-11 cells", "value": "activated Src"},
      {"measurement": "Src activation (Tyr(P)418-Src)", "setting": "Src and ERK1/2; PY-17 cells", "value": "essentially abolished"},
      {"measurement": "ERK1/2 phosphorylation", "setting": "Src and ERK1/2; PY-17 cells, ouabain", "value": "failed to detect any ouabain-induced change"},
      {"measurement": "physiological concentrations able to activate Src and ERKs", "setting": "Src and ERKs", "value": "0.1-1 nM"}
    ]}
  ]
}
